The values below are quoted from earlier work in US6899896B2, “Hydrogel-driven layered drug dosage form” (Pfizer Inc, priority 1999, dated 2005).

Where two headings read alike, the source gives them in different places.

Regarding `CN[C@H]1CC[C@@H](c2ccc(Cl)c(Cl)c2)c2ccccc21` [Sertraline, (1S-cis)-4-(3,4-dichlorophenyl)-1,2,3,4-tetrahydro-N-methyl-1-naphthalenamine], the solubility of sertraline (pH 2.0) is recorded as 6 mgA/mL, the solubility of sertraline result (pH 6.5) is listed as “about 1 mgA/mL”, the solubility of sertraline entry (pH about 7.0) is listed as “about 0.2 mgA/mL” and the solubility of sertraline result (pH about 7.5) is reported as “about 0.05 mgA/mL”.
